One may read the vapor or sublimation pressure as the equilibrium pressure above the liquid or solid.

Numbers after ± are expanded uncertainties.

Consider 6 compounds from the NIST ThermoML archive (doi:10.1021/je034197x).

For the data set the following is noted: Liquid, Closed cell (Static) method.

As to `CCCCO` [butan-1-ol], the “vapor or sublimation pressure” value (298.15 K) is 1.003 ± 0.2 kPa; the “vapor or sublimation pressure” value (303.15 K) is 1.317 ± 0.2 kPa; the “vapor or sublimation pressure” value (308.15 K) was determined as 1.841 ± 0.2 kPa; the “vapor or sublimation pressure” value (313.15 K) was 2.544 ± 0.2 kPa; the “vapor or sublimation pressure” value (318.15 K) is recorded as 3.453 ± 0.2 kPa; the “vapor or sublimation pressure” value (323.15 K) is 4.648 ± 0.2 kPa. In addition, the “vapor or sublimation pressure” value is 6.171 ± 0.2 kPa (328.15 K); 8.103 ± 0.2 kPa (333.15 K); 10.56 ± 0.2 kPa (338.15 K); 13.6 ± 0.2 kPa (343.15 K); 17.37 ± 0.2 kPa (348.15 K); 21.98 ± 0.2 kPa (353.15 K). Also, the “vapor or sublimation pressure” value is 27.65 ± 0.2 kPa (358.15 K) and 34.41 ± 0.21 kPa (363.15 K).
Take `CCC(C)O` (stereo not drawn) [butan-2-ol]: the “vapor or sublimation pressure” value by setting is: (298.15 K) 2.44 ± 0.2 kPa; (303.15 K) 3.373 ± 0.2 kPa; (308.15 K) 4.588 ± 0.2 kPa; (313.15 K) 6.234 ± 0.2 kPa; (318.15 K) 8.252 ± 0.2 kPa; (323.15 K) 10.86 ± 0.2 kPa. The “vapor or sublimation pressure” value runs as follows: (328.15 K) 14.13 ± 0.2 kPa; (333.15 K) 18.34 ± 0.2 kPa; (338.15 K) 23.49 ± 0.2 kPa; (343.15 K) 29.71 ± 0.21 kPa; (348.15 K) 37.2 ± 0.21 kPa; (353.15 K) 46.36 ± 0.21 kPa. The “vapor or sublimation pressure” value runs as follows: (358.15 K) 57.16 ± 0.22 kPa; (363.15 K) 70.24 ± 0.23 kPa.
`CCO` [ethanol]: the “vapor or sublimation pressure” value is, setting by setting: (298.15 K) 7.916 ± 0.024 kPa; (303.15 K) 10.54 ± 0.031 kPa; (308.15 K) 13.84 ± 0.039 kPa; (313.15 K) 17.98 ± 0.049 kPa; (318.15 K) 23.17 ± 0.062 kPa; (323.15 K) 29.58 ± 0.077 kPa. Further, the “vapor or sublimation pressure” value reads like this: (328.15 K) 37.46 ± 0.097 kPa; (333.15 K) 46.95 ± 0.12 kPa; (338.15 K) 58.58 ± 0.15 kPa; (343.15 K) 72.24 ± 0.18 kPa; (348.15 K) 88.66 ± 0.22 kPa.
As for `CO` [methanol], the “vapor or sublimation pressure” value runs as follows: (298.15 K) 16.95 ± 0.046 kPa; (303.15 K) 21.88 ± 0.058 kPa; (308.15 K) 27.98 ± 0.073 kPa; (313.15 K) 35.51 ± 0.092 kPa; (318.15 K) 44.59 ± 0.11 kPa; (323.15 K) 55.65 ± 0.14 kPa. Also, the “vapor or sublimation pressure” value is recorded as 68.94 ± 0.17 kPa (328.15 K) and 84.62 ± 0.21 kPa (333.15 K).
For the compound `CCCO` [propan-1-ol], the “vapor or sublimation pressure” value is 2.88 ± 0.013 kPa (298.15 K); 3.998 ± 0.015 kPa (303.15 K); 5.374 ± 0.018 kPa (308.15 K); 7.197 ± 0.023 kPa (313.15 K); 9.568 ± 0.028 kPa (318.15 K); 12.42 ± 0.035 kPa (323.15 K). The “vapor or sublimation pressure” value came out at 16.14 ± 0.044 kPa (328.15 K); 20.72 ± 0.055 kPa (333.15 K); 26.41 ± 0.069 kPa (338.15 K); 33.23 ± 0.086 kPa (343.15 K); 41.63 ± 0.11 kPa (348.15 K); 51.67 ± 0.13 kPa (353.15 K). Also, the “vapor or sublimation pressure” value reads like this: (358.15 K) 63.69 ± 0.16 kPa; (363.15 K) 77.81 ± 0.2 kPa.
As to `CC(C)O` [propan-2-ol], the “vapor or sublimation pressure” value was 5.799 ± 0.2 kPa (298.15 K); 7.859 ± 0.2 kPa (303.15 K); 10.52 ± 0.2 kPa (308.15 K); 13.94 ± 0.2 kPa (313.15 K); 18.24 ± 0.2 kPa (318.15 K); 23.64 ± 0.2 kPa (323.15 K). The “vapor or sublimation pressure” value by setting is: (328.15 K) 30.35 ± 0.21 kPa; (333.15 K) 38.59 ± 0.21 kPa; (338.15 K) 48.66 ± 0.21 kPa; (343.15 K) 60.66 ± 0.22 kPa; (348.15 K) 75.22 ± 0.23 kPa; (353.15 K) 92.44 ± 0.24 kPa.
